These are literature values, as cited in patent US8901128B2, “Pharmaceutical compositions of ranolazine” (Lupin Limited, priority 2009, dated 2014).

Data set [1] deals with humans suffering from angina. As to conditions: administered as an IR formulation; 120 mg three times daily.
For data set [2] the following is noted: low pH that occurs in the stomach.
The conditions of data set [3]: in vivo.

Consider `COc1ccccc1OCC(O)CN1CCN(CC(=O)Nc2c(C)cccc2C)CC1` (racemic) [ranolazine, (±)-N-(2,6-dimethylphenyl)-4-[2-hydroxy-3-(2-methoxyphenoxy)-propyl]-1-piperazineacetamide], for which the “antianginal and anti-ischemic efficacy” value in data set [1] is “ineffective”. Besides, the solubility entry in data set [2] was “relatively high”. Further, in data set [3], the plasma half-life result is given as “relatively short”.
